# Test results from patent US20050282757A1, “Peptide boronic acid compounds useful in anticoagulation” (Trigen Limited, priority 2002, published 2005).
# What was measured:
# [1] = Solubility of TRI 50c monosodium salt at different pH values; assay type: physicochemical
# Protocol: It may be desirable to make aqueous solutions of boronic acid drugs for administering them. […] However, a solution with a pH of 9.5 may be unacceptable or undesirable. Accordingly, a pharmaceutically acceptable organic acid may be included in the particulate formulation in an amount selected to reduce the pH to a value at which the solution is more acceptable but at which a solution of drinkable quantity (e.g. about 50 ml to about 150 ml) may be formed by reconstituting the particulate formulation. As the organic acid may be mentioned citric acid, tartaric acid or malic acid, for example. In many instances, citric acid is chosen.
# In a first series of experiments, this amount of the salt was dissolved in 50 ml water to form a solution of approximately pH 9.5. Dilute aqueous HCl was added to determine how much the pH could be reduced before precipitation occurred.
# In a second series of experiments, the same amount of the salt was dissolved in 150 ml water, and citric acid was added. […] Since acid solutions tend to be more palatable than alkaline ones, and citric acid is a common flavouring agent, this behaviour of the salt is highly beneficial. […] In general, it is contemplated that the boronate will be formulated to form a reconstituted solution having a pH of from 4 to 8, e.g. 4 to 7, optionally 5 to 6.
# [2] = Stability assay before and after drying, HPLC-PDA (Example 34); assay type: physicochemical; conditions: for Amount: 5 mg in 5 mL
# Protocol: An assay of TRI 50c and its sodium and lysine salts before and after drying.
# For sample analysis, 5 mg of dried and non-dried material was weighed in a 5 mL volumetric flask and dissolved in 1 mL acetonitrile and filled up with demineralised water to 5 mL.
# The quantitative evaluation was performed using an HPLC-PDA method.
# thrombin time and APTT = assay: Intravenous administration in beagle dogs, PK/PD (Example 36); assay type: in vivo; conditions: 1.0 mg/kg i.v.; for thrombin time at pharmacodynamic C max: 2 minutes post dose, base line 14.3 seconds, monosodium salt
# Protocol: Blood samples were taken into 3.8% tri-sodium citrate (1+8) at pre dose, 2, 5, 10, 20, 30, minutes post dose and then at 1, 2, 3, 4, 6, 8, 12 and 24 hours post dose. Plasma was prepared by centrifugation and frozen at minus 20° C. pending analysis.
# thrombin time (TT) = assay: Intravenous administration into humans (Examples 40 and 46); assay type: in vivo
# Protocol: The test consisted of three groups, each of six males. From each group 5 men were given the active ingredient and 1 was given a placebo.
# Total I.V. administered doses were: • 82 mg (7 mg intravenous bolus (over 30s) followed by an infusion of 25 mg/h for 3 hours). • 130 mg (10 mg intravenous bolus (over 30s) followed by an infusion of 40 mg/h for 3 hours). • 120 mg (by infusion of 40 mg/h for 3 hours). […] Within 30 minutes after cessation of infusion there was a fall to a level at which clinically significant anticoagulation is not expected.
# [3] = test system: dynamic coagulation markers; assay: Simulated mitral valve repair on hypothermic CPB in dogs (Example 48); assay type: in vivo, beagle dogs; conditions: intravenous
# Protocol: Following a dose ranging study in conscious dogs, six beagle dogs were placed on CPB and underwent a simulated mitral valve repair. A range of dynamic coagulation markers were measured, including thrombin clotting time (TT), activated partial thromboplastin time (APTT), activated clotting time (ACT), ecarin clotting time (ECT), whole blood thrombin clotting time, platelet counts and function tests. In addition, pre and post-operative echocardiograms and intra-operative blood loss were evaluated. […] By virtue of its predictable anticoagulant efficacy and controlled duration of action, TGN 255 offers potential in on pump and off pump coronary bypass procedures.
# [4] = Comparative storage stability of sodium and calcium salts (Example 49); assay type: physicochemical; conditions: for Tri50c (w/w %, LOD corr.): corrected for loss on drying
# Excerpt: In both studies the active pharmaceutical ingredient was stored in grip sealed double bags within a PE/PP screw cap closed cylinder.
# [5] = Excretion of administered dose; conditions: in vivo
# Excerpt: It will be appreciated that such short duration of action (rapid offset of activity) achieved by a boronic acid is well suited for the prevention of thrombosis in intermittent apheresis procedures, and that oral administration is particularly useful in the case of elective intermittent apheresis procedures. In one class of embodiments, the apheresis procedure is haemodialysis (strictly CIHD); in another, the procedure is not haemodialysis.
# Plasmin = Plasmin (Homo sapiens, UniProt P00747); assay: Plasmin inhibition, Method B (Example 52); assay type: biochemical; conditions: Plasmin relative to Thrombin
# Chain of Plasmin (P00747 581-810 limits assumed, species assumed): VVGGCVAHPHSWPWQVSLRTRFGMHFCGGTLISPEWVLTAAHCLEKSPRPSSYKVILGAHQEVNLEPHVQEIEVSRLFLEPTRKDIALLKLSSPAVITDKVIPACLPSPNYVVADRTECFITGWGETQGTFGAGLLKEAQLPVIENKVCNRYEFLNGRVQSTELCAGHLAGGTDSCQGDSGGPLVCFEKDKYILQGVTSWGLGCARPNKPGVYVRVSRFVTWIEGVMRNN
# Chain of Plasmin (P00747 97-580 limits assumed, species assumed): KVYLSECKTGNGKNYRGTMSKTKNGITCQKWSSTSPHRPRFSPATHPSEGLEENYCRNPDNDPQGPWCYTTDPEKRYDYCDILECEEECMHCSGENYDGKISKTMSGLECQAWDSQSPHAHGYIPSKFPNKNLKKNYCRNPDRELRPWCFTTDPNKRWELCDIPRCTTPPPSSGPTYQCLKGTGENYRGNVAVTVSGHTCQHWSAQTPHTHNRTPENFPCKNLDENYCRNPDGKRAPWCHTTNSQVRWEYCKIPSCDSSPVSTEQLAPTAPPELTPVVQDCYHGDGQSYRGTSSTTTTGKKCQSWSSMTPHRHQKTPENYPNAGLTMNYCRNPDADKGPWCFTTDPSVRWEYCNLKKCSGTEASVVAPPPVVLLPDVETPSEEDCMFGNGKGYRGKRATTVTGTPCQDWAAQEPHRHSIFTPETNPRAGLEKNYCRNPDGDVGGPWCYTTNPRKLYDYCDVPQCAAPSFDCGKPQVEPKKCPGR
# Protocol: 50 μl Plasmin (75 ng/ml in assay buffer) and 20 μl vehicle or compound solution were added to 110 μl assay buffer (100 mM Na orthophosphate (80% Na2HPO4 and 20% NaH2PO4), 200 mM NaCl, 0.5% PEG 6000, 0.02% Na azide, pH 7.5) and incubated for 5 minutes at 37° C.
# [6] = dry (1 week in desiccator over phosphorus pentoxide)
smiles,measurement,setting,value
"COCCC[C@H](NC(=O)[C@@H]1CCCN1C(=O)[C@@H](Cc1ccccc1)NC(=O)OCc1ccccc1)B(O)O.[Na+] [TRI 50c monosodium salt, Cbz-(R)-Phe-(S)-Pro-(R)-Mpg-B(OH)2 monosodium salt]",concentration of boronate salt solution that can be formed,[1]; pH of about 9.5,up to 600 mg/ml
same,pH below which the salt tended to precipitate,"[1]; salt equivalent to 600 mg TRI 50c in 50 ml water, dilute aqueous HCl added",below 9
same,pH reached before precipitation occurred,"[1]; salt equivalent to 600 mg TRI 50c in 150 ml water, citric acid added",3.7-3.8
same,Purity,[2]; [6],98.81 % area
same,Amount,[2]; [6],1024 µg/mL
same,Purity,[2]; non-dried,98.61 % area
same,Amount,[2]; non-dried,1005.8 µg/mL
same,thrombin time at pharmacodynamic C max,thrombin time and APTT; listed as TRI 50c sodium salt,154 s
same,thrombin time at pharmacodynamic C max,thrombin time and APTT,154.4 s
same,Thrombin time,thrombin time and APTT; one hour post dose,26 s
same,elevation in the APTT,thrombin time and APTT; post dose,1.3 times
same,tolerance,thrombin time and APTT; total duration of the study,tolerated well with no adverse events
same,Thrombin clotting time elevation above base line,thrombin time and APTT; two minutes following dosing,10.8 times
same,APTT post dose,thrombin time and APTT; from 19 seconds,25 s
same,time for plasma concentrations of the active principle to return to tolerably low levels,thrombin time (TT); after termination of intravenous administration,≤ 30 min
same,time after cessation of infusion to fall to a level at which clinically significant anticoagulation is not expected,thrombin time (TT); i.v. infusion,≤ 30 min
same,"distribution phase, time after the end of infusion",thrombin time (TT); i.v. infusion for 3 hours,≤ 30 min
same,effect on thrombin time (TT),thrombin time (TT); intravenous infusion,"rapid, dose-related increase in the thrombin time (TT)"
same,overall terminal elimination half life,"thrombin time (TT); plasma, i.v.",about 4 hours
same,safety assessments,"thrombin time (TT); single i.v. doses 82, 130, 120 mg",No clinically significant findings
same,adverse clinical events,"thrombin time (TT); study period of 24 hours, any dose",no adverse clinical events of either a general or cardiovascular nature
same,anticoagulation during bypass and surgery,[3],excellent anticoagulation during bypass and surgery with little bleeding
same,Appearance,[4]; T = 0,Powdery
same,Color,[4]; T = 0,White
same,Tri50c (w/w %),[4]; T = 0,101.1 w/w %
same,"Tri50c (w/w %, LOD corr.)",[4]; T = 0,101.5 w/w %
same,Appearance,"[4]; T = 1, 25° C./60% r.h.",powdery
same,Color,"[4]; T = 1, 25° C./60% r.h.",white
same,Tri50c (w/w %),"[4]; T = 1, 25° C./60% r.h.",99.5 w/w %
same,"Tri50c (w/w %, LOD corr.)","[4]; T = 1, 25° C./60% r.h.",103.6 w/w %
same,Appearance,"[4]; T = 1, 40° C./75% r.h.",powdery
same,Color,"[4]; T = 1, 40° C./75% r.h.",white
same,Tri50c (w/w %),"[4]; T = 1, 40° C./75% r.h.",90.3 w/w %
same,"Tri50c (w/w %, LOD corr.)","[4]; T = 1, 40° C./75% r.h.",94.5 w/w %
same,Appearance,"[4]; T = 1, −20° C.",powdery
same,Color,"[4]; T = 1, −20° C.",white
same,Tri50c (w/w %),"[4]; T = 1, −20° C.",103.1 w/w %
same,"Tri50c (w/w %, LOD corr.)","[4]; T = 1, −20° C.",104.3 w/w %
same,Appearance,"[4]; T = 3, 25° C./60% r.h.",powdery
same,Color,"[4]; T = 3, 25° C./60% r.h.",white
same,Tri50c (w/w %),"[4]; T = 3, 25° C./60% r.h.",95.3 w/w %
same,"Tri50c (w/w %, LOD corr.)","[4]; T = 3, 25° C./60% r.h.",100.4 w/w %
same,Appearance,"[4]; T = 3, 40° C./75% r.h.",viscous
same,Color,"[4]; T = 3, 40° C./75% r.h.",brown
same,Tri50c (w/w %),"[4]; T = 3, 40° C./75% r.h.",48.6 w/w %
same,"Tri50c (w/w %, LOD corr.)","[4]; T = 3, 40° C./75% r.h.",52.2 w/w %
same,Appearance,"[4]; T = 3, −20° C.",powdery
same,Color,"[4]; T = 3, −20° C.",white
same,Tri50c (w/w %),"[4]; T = 3, −20° C.",102.5 w/w %
same,Tri50c (w/w %),"[4]; T = 12, 25° C./60% r.h.",70.5 w/w %
same,"Tri50c (w/w %, LOD corr.)","[4]; T = 12, 25° C./60% r.h.",71.2 w/w %
same,administered dose excreted as TRI 50c species (acid and corresponding boronate species),[5],14%
COCCC[C@H](NC(=O)[C@@H]1CCCN1C(=O)[C@@H](Cc1ccc(F)cc1)NC(=O)OCc1ccccc1)B([O-])O.[Na+] [TRI 50f],Selectivity,Plasmin,>1000
